“And” between values parts separate entries of the source, which are not always exact repeats. Identical values can stand only once. “Also recorded” adds a separate entry of the source. Like-named read-outs stand apart in the source and are kept apart here.
Columns and labels:
HT29 cells [1] = details: read-out: GI50 (potency), cited from earlier work
HCT116 cells [2] = details: read-out: GI50 (potency), cited from earlier work
[3] = system: HCT116 human tumour xenografts; assay: Anti-tumour activity in HCT116 xenograft-bearing mice; assay type: in vivo; details: 2 mg/kg WX-554 and/or 50 mg/kg WX-037 p.o. once daily for 14 days
Protocol: (§1) Animal studies were all carried out using female athymic CD1 nude mice (Charles River, Kent, UK), implanted with HCT116 or HT29 xenografts (1 × 10^7 cells in 50 µl media injected subcutaneously into the right flank), maintained and handled in isolators under specific pathogen-free conditions.
(§2) Mice bearing HCT116 human tumour xenografts were randomized into treatment groups and then treated by oral gavage with either the vehicle (10 ml/kg), 2 mg/kg WX-554, 50 mg/kg WX-037 or the combination of 2 mg/kg WX-554 and 50 mg/kg WX-037 once daily for 14 days. Tumour volume was monitored by calliper measurement using the equation a ^2 × b/2, where a is the smallest measurement and b the largest. Data are presented as median relative tumour volumes (RTV), where the tumour volume in each mouse on the initial day of treatment (day 0) is assigned an RTV value of 1. The time to RTV4 for each individual tumour was calculated based on a standard point to point curve with 1000 segments using GraphPad Prism software (CA, USA). Mann–Whitney U tests were used to compare the different groups, i.e., the control versus each treatment group, the single agents versus each other and each single agent versus their combination. Differences with a p value ≤0.05 were considered statistically significant.

[4] = system: phosphorylation of ERK1/2, AKT, S6 and 4EBP1 in HCT116 cells; assay: Western blotting of PI3K/AKT and MAPK signal transduction, HCT116; assay type: cell-based, human; details: HCT116, 24 h, 1x or 10x GI50, Western blot
Protocol: (§3) Western blots were prepared, probed with phospho-4EBP1 (Thr37/46) (#2855), phospho-p44/42 MAPK (Thr202/Tyr204) (#4370), phospho-AKT (Ser473) (#4060) or phospho-S6 ribosomal protein (Ser235/236) (#4858) monoclonal antibodies obtained from Cell Signalling Technology (New England BioLabs (UK) Ltd, Hertfordshire, UK) and developed as described previously. Blots were then stripped (100 mM 2-mercaptoethanol, 2% (w/v) SDS and 62.5 mM Tris pH6.8 at 55 °C for 30 min) and re-probed with the respective total monoclonal antibody (4EBP1 (53H11) (#9644), p44/42 MAPK (ERK1/2) (#4695), AKT (pan) (C67E7) (#4691) or S6 ribosomal protein (5g10) (#2217)) obtained from Cell Signalling Technology (New England BioLabs (UK) Ltd, Hertfordshire, UK) and developed as described above.

HT29 cells [5] = assay: Sulforhodamine B (SRB) growth inhibition assay with median effect analysis, HT29; assay type: cell-based, human
Protocol: (§4) Growth was then measured using the Sulforhodamine B (SRB) method and analysed as described previously. The GI50 concentration was calculated based on a standard point to point curve with 1000 segments using GraphPad Prism software (California, USA). The data were analysed by median effect analysis using CalcuSyn software (Biosoft, Cambridgeshire, UK), which calculates the combination index of multiple drugs by an algebraic estimation algorithm.

[6] = set-up: method as in PMID 23587417, PMID 24434059; details: recent Phase I study; cited from earlier work
[7] = Pharmacokinetic study, plasma and tumour concentrations, HT29 xenograft-bearing mice; assay type: in vivo
Protocol: as §1
(§5) Mice bearing HCT116 or HT29 human tumour xenografts were treated with 1 or 5 mg/kg WX-554, or 20 or 100 mg/kg WX-037, alone or in combination, and were bled by cardiac puncture under terminal anaesthesia at 6 or 24 h post-treatment (3 mice/time point). Blood was collected into heparinized tubes, and plasma was separated and stored at −20 °C until analysed. Tumours were removed, snap frozen in liquid nitrogen and stored at −80 °C prior to PK analyses. Samples were extracted with solid phase extraction (SPE) and analysed with high-performance liquid chromatography (HPLC) coupled with tandem mass spectrometry (MS/MS) by Wilex (Munich, Germany). The quantification limit for WX-554 was 1 ng/mL and within and between day variation was <15%. WinNonlin Software Version 4.0.1 (Pharsight Corporation, Peypin, France) was used for PK/PD modelling and non-compartmental analysis. Paired t tests were used to compare the different treatment groups, and differences with a p value ≤0.05 were considered statistically significant.

MEK2 = details: stated in Introduction, method and reference not given; read-out: half maximal inhibitory concentration (IC50), MEK2; cited from earlier work
HCT116 cells [8] = assay: Sulforhodamine B (SRB) growth inhibition assay with median effect analysis, HCT116; assay type: cell-based, human; details: HCT116, single agent
Protocol: as §4

[9] = system: phosphorylation of ERK1/2, AKT, S6 and 4EBP1 in HT29 cells; assay: Western blotting of PI3K/AKT and MAPK signal transduction, HT29; assay type: cell-based, human; details: HT29, 24 h, 1x or 10x GI50, Western blot
Protocol: as §3

[10] = Tolerability (body weight) in the HCT116 xenograft efficacy study; assay type: in vivo; details: HCT116 xenograft mice, 2 mg/kg WX-554 and/or 50 mg/kg WX-037 p.o. once daily for 14 days
Protocol: as §2
Based on the results of the PK study, the efficacy of 50 mg/kg of the PI3K inhibitor WX-037 and 2 mg/kg of the MEK inhibitor WX-554 given orally, as single agents and in combination, was assessed in HCT116 human tumour xenograft-bearing mice (Fig. 5). […] In this study, mice were treated daily for 14 days and tumour volumes were measured three times a week.

HCT116 cells [11] = assay: Clonogenic cytotoxicity assay, HCT116
From the text: (§6) HCT116 and HT29 human colorectal cancer cells were obtained from the ATCC (American Type Culture Collection).
(§7) After growth for 10–14 days, colonies were fixed in methanol–acetic acid 3:1 (v/v) and stained with crystal violet (0.4% w/v). Colonies consisting of more than 50 cells were counted on an automated colony counter (Oxford Optronix, Oxford, UK). Two-tailed paired t tests were used to compare the different groups. Differences with a p < 0.05 were considered statistically significant.

MEK1 = details: stated in Introduction, method and reference not given; read-out: half maximal inhibitory concentration (IC50), MEK1; cited from earlier work
HT29 cells [12] = assay: Clonogenic cytotoxicity assay, HT29
From the text: as §6, §7

[13] = Pharmacokinetic study, plasma and tumour concentrations, HCT116 xenograft-bearing mice; assay type: in vivo
Protocol: as §1, §5

[14] = set-up: method as in earlier work; details: dose escalation study in healthy volunteers; cited from earlier work
[15] = 1 mg/kg WX-554 + 20 mg/kg WX-037, single p.o. dose
[16] = 1 mg/kg WX-554 + 100 mg/kg WX-037, single p.o. dose
[17] = 1 mg/kg WX-554 alone, single p.o. dose
[18] = 5 mg/kg WX-554 + 20 mg/kg WX-037, single p.o. dose
[19] = 5 mg/kg WX-554 + 100 mg/kg WX-037, single p.o. dose
[20] = 5 mg/kg WX-554 alone, single p.o. dose

O=C(NOC[C@H](O)CO)c1ccc(F)c(F)c1Nc1ccc(I)cc1F [PD 0325901]
GI50 (HT29 cells [1]; HT29, using the same assay): 6.5 nM | GI50 (HCT116 cells [2]; HCT116, using the same assay): 21 nM

NCC1CN(C(=O)c2c(Nc3ccc(I)cc3F)sc3ncccc23)C1 [WX-554]
tumour growth compared to vehicle-treated control tumours [3]: caused tumour growth delay; also recorded: induced tumour growth delay | reduction of ERK1/2 phosphorylation [4]: reduced ERK1/2 phosphorylation at 1 and 10 times the GI50 concentration | GI50 (HT29 cells [1]; HT29, unpublished Wilex studies): 7.2 nM | GI50 (HCT116 cells [2]; HCT116, unpublished Wilex studies): 29 nM | fold difference in sensitivity, HT29 more sensitive than HCT116 (HT29 cells [5]; GI50 HCT116 versus GI50 HT29): 9 fold | GI50 (HT29 cells [5]; HT29, single agent, 72-h exposure, SRB, read-out: GI50 (half maximal growth inhibitory concentration)): 4.3 nM and 4 nM | in vitro GI50 value (HT29 cells [5]; HT29, single agent, determined in Supplementary Figure 1): 0.002 µg/mL | bioavailability [6]: very good bioavailability | WX-554 Concentration ± SD, Plasma, 6 hours [7, 15]: 101 ± 39 ng/mL | WX-554 Concentration ± SD, Plasma, 24 hours [7, 15]: 5 ± 3 ng/mL | WX-554 Concentration ± SD, Tumour, 6 hours [7, 15]: 1180 ± 597 ng/mL | WX-554 Concentration ± SD, Tumour, 24 hours [7, 15]: 447 ± 80 ng/mL | WX-554 Concentration ± SD, Plasma, 6 hours [7, 16]: 19 ± 14 ng/mL | WX-554 Concentration ± SD, Plasma, 24 hours [7, 16]: 13 ± 7 ng/mL | WX-554 Concentration ± SD, Tumour, 6 hours [7, 16]: 159 ± 102 ng/mL | WX-554 Concentration ± SD, Tumour, 24 hours [7, 16]: 407 ± 66 ng/mL | WX-554 Concentration ± SD, Plasma, 6 hours [7, 17]: 21 ± 1 ng/mL | WX-554 Concentration ± SD, Plasma, 24 hours [7, 17]: 3 ± 1 ng/mL | WX-554 Concentration ± SD, Tumour, 6 hours [7, 17]: 510 ± 40 ng/mL | WX-554 Concentration ± SD, Tumour, 24 hours [7, 17]: 419 ± 134 ng/mL | WX-554 Concentration ± SD, Plasma, 6 hours [7, 18]: 81 ± 26 ng/mL | WX-554 Concentration ± SD, Plasma, 24 hours [7, 18]: 52 ± 58 ng/mL | WX-554 Concentration ± SD, Tumour, 6 hours [7, 18]: 1143 ± 416 ng/mL | WX-554 Concentration ± SD, Tumour, 24 hours [7, 18]: 2493 ± 979 ng/mL | WX-554 Concentration ± SD, Plasma, 6 hours [7, 19]: 47 ± 33 ng/mL | WX-554 Concentration ± SD, Plasma, 24 hours [7, 19]: 49 ± 10 ng/mL | WX-554 Concentration ± SD, Tumour, 6 hours [7, 19]: 446 ± 239 ng/mL | WX-554 Concentration ± SD, Tumour, 24 hours [7, 19]: 2423 ± 584 ng/mL | WX-554 Concentration ± SD, Plasma, 6 hours [7, 20]: 118 ± 25 ng/mL | WX-554 Concentration ± SD, Plasma, 24 hours [7, 20]: 13 ± 3 ng/mL | WX-554 Concentration ± SD, Tumour, 6 hours [7, 20]: 2748 ± 378 ng/mL | WX-554 Concentration ± SD, Tumour, 24 hours [7, 20]: 1916 ± 207 ng/mL | IC50 (MEK2): 11 nM | GI50 (HCT116 cells [8]; 72-h exposure, SRB, read-out: GI50 (half maximal growth inhibitory concentration)): 38 nM | in vitro GI50 value (HCT116 cells [8]; determined in Supplementary Figure 1): 0.018 µg/mL | reduction of ERK1/2 phosphorylation [9]: at 10 times the GI50 concentration in the HT29 cell line | tolerability / toxicity [10]: non-toxic | LC50 fold higher than the corresponding GI50 (HCT116 cells [11]; HCT116): approximately 16 fold | cell kill (cytotoxicity, cell death) (HCT116 cells [11]; HCT116, single agent 10 µM, 72 h, clonogenic assay): 67% | CC50 (HCT116 cells [11]; read-out: mean lethal concentration (LC50), HCT116, 72-h exposure, clonogenic assay): 600 nM | IC50 (MEK1): 4.7 nM | LC50 fold higher than the corresponding GI50 (HT29 cells [12]; HT29): ~372 fold | cell kill (cytotoxicity, cell death) (HT29 cells [12]; HT29, single agent 10 µM, 72 h, clonogenic assay): 75% | CC50 (HT29 cells [12]; read-out: mean lethal concentration (LC50), HT29, 72-h exposure, clonogenic assay): 1600 nM | WX-554 Concentration ± SD, Plasma, 6 hours [13, 15]: 17 ± 9 ng/mL | WX-554 Concentration ± SD, Plasma, 24 hours [13, 15]: 6 ± 6 ng/mL | WX-554 Concentration ± SD, Tumour, 6 hours [13, 15]: 184 ± 62 ng/mL | WX-554 Concentration ± SD, Tumour, 24 hours [13, 15]: 141 ± 58 ng/mL | WX-554 Concentration ± SD, Plasma, 6 hours [13, 16]: 20 ± 10 ng/mL | WX-554 Concentration ± SD, Plasma, 24 hours [13, 16]: 10 ± 7 ng/mL | WX-554 Concentration ± SD, Tumour, 6 hours [13, 16]: 319 ± 139 ng/mL | WX-554 Concentration ± SD, Tumour, 24 hours [13, 16]: 464 ± 263 ng/mL | WX-554 Concentration ± SD, Plasma, 6 hours [13, 17]: 19 ± 5 ng/mL | WX-554 Concentration ± SD, Plasma, 24 hours [13, 17]: 2 ± 1 ng/mL | WX-554 Concentration ± SD, Tumour, 6 hours [13, 17]: 478 ± 97 ng/mL | WX-554 Concentration ± SD, Tumour, 24 hours [13, 17]: 309 ± 30 ng/mL | WX-554 Concentration ± SD, Plasma, 6 hours [13, 18]: 74 ± 27 ng/mL | WX-554 Concentration ± SD, Plasma, 24 hours [13, 18]: 28 ± 7 ng/mL | WX-554 Concentration ± SD, Tumour, 6 hours [13, 18]: 673 ± 453 ng/mL | WX-554 Concentration ± SD, Tumour, 24 hours [13, 18]: 1240 ± 282 ng/mL | WX-554 Concentration ± SD, Plasma, 6 hours [13, 19]: 98 ± 18 ng/mL | WX-554 Concentration ± SD, Plasma, 24 hours [13, 19]: 68 ± 19 ng/mL | WX-554 Concentration ± SD, Tumour, 6 hours [13, 19]: 804 ± 353 ng/mL | WX-554 Concentration ± SD, Tumour, 24 hours [13, 19]: 1583 ± 369 ng/mL | WX-554 Concentration ± SD, Plasma, 6 hours [13, 20]: 130 ± 37 ng/mL | WX-554 Concentration ± SD, Plasma, 24 hours [13, 20]: 11 ± 2 ng/mL | WX-554 Concentration ± SD, Tumour, 6 hours [13, 20]: 1724 ± 442 ng/mL | WX-554 Concentration ± SD, Tumour, 24 hours [13, 20]: 360 ± 223 ng/mL | safety and tolerability [14]: safe and tolerable

CS(=O)(=O)N1CCN(Cc2cc3nc(-c4cccc5[nH]ncc45)nc(N4CCOCC4)c3s2)CC1 [pictilisib, 2-(1H-Indazol-4-yl)-6-(4-methanesulfonyl-piperazin-1-ylmethyl)-4-morpholin-4-yl-thieno[3,2-d]pyrimidine]
GI50 (HT29 cells [1]; HT29, using the same assay): 157 nM | GI50 (HCT116 cells [2]; HCT116, using the same assay): 1080 nM

— publication PMC5114336, “Enhanced anti-tumour activity of the combination of the novel MEK inhibitor WX-554 and the novel PI3K inhibitor WX-037” (Cancer Chemotherapy and Pharmacology, 2016)
